In the test the test system is human hair follicles. In words: In vitro culture of human hair follicles (hair growth inhibition). Format: cell-based. Particulars: 50 follicles from 5 donors. Here is the method:
The hair follicles were incubated for 7 days at 37° C. under an atmosphere of air that was enriched with carbon dioxide (5 vol.-%). The length of hair follicles was monitored before being cultured, after 3 days of culture and after 7 days of culture. […] The test was done on hair follicles coming from 3-5 different donors. For each donor 10 follicles were cultured for each set of conditions. The results presented in table 2 are the cumulated results of all hair follicles.

Where [1] appears, read: with IGF-1 (30 ng/ml), 0.001 % P/v.

The record followed here is patent US7722901B2, “Uses for the extract of a plant of the family Asclepiadaceae” (Cognis IP Management GmbH, priority 2004, dated 2010).

Consider `C=C[C@@]1(C)CC(=O)[C@]2(O)[C@@]3(C)[C@@H](O)CCC(C)(C)[C@@H]3[C@H](O)[C@H](OC(C)=O)[C@@]2(C)O1` [Forskolin], for which the “increase in hair growth Day 3/Day 0” value under setting [1] is “+9%” and the “increase in hair growth Day 3/Day 0” value (without IGF-1, 0.001 % P/v) is given as “+8%”. In addition, the “increase in hair growth Day 7/Day 0” value is, setting by setting: under setting [1], “+17%”; (without IGF-1, 0.001 % P/v) “+15%”.
